Data: patent US4058624A, “Broad spectrum antibacterial compositions containing tris (hydroxymethyl)-aminomethane and diphenyl and loweralkyl substituted diphenyl polyamines” (Merck & Co., Inc., priority 1976, dated 1977)

Assay: Acute toxicity, oral LD50 mice (Table I)
Conditions: mouse, in vivo
Source text: The low toxicity of these compounds makes them especially attractive for use where contact with skin surfaces or possible ingestion renders the use of irritating or toxic materials inadvisable.

Cc1ccc(C(C)(C)C)cc1CCCC(CCCc1cc(C(C)(C)C)ccc1C)NCCCNCCCN.Cl.Cl.Cl [1-[1,7-di-(2-methyl-5-t-butylphenyl)-4-heptyl]-1,5,9-triazanonane trihydrochloride]
LD50: 1650 mg/kg

CC(C)(C)c1ccc(CCCC(CCCc2ccc(C(C)(C)C)cc2)NCCCNCCCNCCCN)cc1.Cl.Cl.Cl.Cl [1-[1,7-bis-(4-t-butylphenyl)-4-heptyl]-1,5,9,13-tetrazatridecane tetrahydrochloride]
LD50: 1550 mg/kg

Cc1cc(C)c(CCC(CCc2c(C)cc(C)cc2C)NCCCNCCCN)c(C)c1.Cl.Cl.Cl [1-[1,5-di-(2,4,6-trimethylphenyl)-3-pentyl]-1,5,9-triazanonane trihydrochloride]
LD50: 1150 mg/kg

Cc1ccc(C(C)(C)C)cc1CCCC(CCCc1cc(C(C)(C)C)ccc1C)NCCNCCNCCN.Cl.Cl.Cl.Cl [1-[1,7-di-(2-methyl-5-t-butylphenyl)-4-heptyl]-1,4,7,10-tetrazadecane tetrahydrochloride]
LD50: 2070 mg/kg
